Results on six compounds are retold here after US20240025887A1, “THIENYL AND CYCLOALKYL AMINOPYRIMIDINE COMPOUNDS AS INHIBITORS OF NUAK KINASES, COMPOSITIONS AND USES THEREOF” (Ontario Institute for Cancer Research (OICR), priority 2021, published 2024).

Experiment [1] has as its system pSer445 MYPT1 in MDA-MB-231 cells. The experiment in a line: Cell-based phospho-MYPT1 assay. Particulars: 500 nM, 1 hour, immunoblot, FIG. 2. Here is the method: Compounds with sufficient activity in the biochemical NUAK assay were evaluated in a cell-based assay to confirm their targeted activity. To allow direct assessment of target engagement by NUAK2 inhibitors in cells, an antibody to MYPT1, a NUAK2 substrate, which specifically recognizes the phosphorylated Ser445 epitope in endogenous MYPT1 protein was utilized (Biochem J. 2014 457 (Pt 1): 215-225; Biochem J. 201 461 (Pt 2): 233-245).
MDA-MB-231 cells were incubated in the absence (DMSO) or presence of Compound I-1 (500 nM) for 1 hour. Cell were lysed at 4° C. for 30 mins in RIPA buffer (50 mM tris-HCL, 150 mM NaCl, 1 mM EDTA, 0.1% SDS, 1% NP-40, 0.5% Sodium deoxycholate) containing protease and phosphatase inhibitors. Samples were separated by sodium dodecyl sulfate-polyacrylamide gel electrophoresis (SDS-PAGE), transferred to nitrocellulose and immunoblotted for the detection of pSer^445MYPT1 or ACTIN.
In general terms: A western blot detects proteins with antibodies after separation by electrophoresis.

In another experiment the target is T1, NUAK2 (h) (Homo sapiens, UniProt Q9H093).
T1 construct: This assay was done radiometrically using full-length, recombinant enzyme; purchased Eurofins
T1 sequence (Q9H093 1-628): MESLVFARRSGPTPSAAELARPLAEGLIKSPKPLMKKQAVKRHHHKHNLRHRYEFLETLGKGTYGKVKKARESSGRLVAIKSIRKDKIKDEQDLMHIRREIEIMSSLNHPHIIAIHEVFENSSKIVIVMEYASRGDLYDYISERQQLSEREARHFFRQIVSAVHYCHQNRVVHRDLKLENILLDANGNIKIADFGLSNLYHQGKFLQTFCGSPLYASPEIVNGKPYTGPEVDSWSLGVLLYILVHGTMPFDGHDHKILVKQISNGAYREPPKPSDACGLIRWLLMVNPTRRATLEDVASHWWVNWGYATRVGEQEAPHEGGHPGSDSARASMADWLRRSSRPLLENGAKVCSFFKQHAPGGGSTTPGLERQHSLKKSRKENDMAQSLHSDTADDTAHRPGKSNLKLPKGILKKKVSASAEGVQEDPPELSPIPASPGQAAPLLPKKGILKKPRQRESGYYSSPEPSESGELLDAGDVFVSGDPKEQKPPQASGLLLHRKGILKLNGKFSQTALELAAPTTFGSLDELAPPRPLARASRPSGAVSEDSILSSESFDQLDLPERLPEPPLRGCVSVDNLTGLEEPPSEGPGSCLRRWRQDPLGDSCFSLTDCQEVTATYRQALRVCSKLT
The experiment in a line: NUAK2 enzymatic assay (radiometric, Eurofins). Particulars: for AUR-A (IC50, nM)/NUAK2 (IC50, nM): NUAK2 selectivity over Aurora-A, ratio of IC50s; for IC50: radiometric, full-length recombinant enzyme. In kind it is biochemical. A digest of the protocol:
(§1)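 Radiometric assay with full-length recombinant NUAK2 in 8 mM MOPS pH 7.0, 0.2 mM EDTA, 10 mM magnesium acetate, 300 μM peptide substrate and [33P]-ATP, 40 min at room temperature. Phosphoric acid stop, filter capture, scintillation counting. Aurora A and NUAK1 used as counter screens.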

The test system of experiment [2] is YAP/TAZ nuclear localization in Clover-YAP expressing MDA-MB-231 cells. The experiment in a line: Cell-based YAP/TAZ localization assay. Particulars: Clover-YAP MDA-MB-231 cells, live imaging every 10 min for 2 h, FIG. 1. On the procedure:
Compounds of the application were tested for their ability to inhibit localization of YAP/TAZ to the nucleus of cells using an assay generally described in Nature Communications, 2018, 9:3510. Live cell imaging of Clover-YAP expressing MDA-MB-231 cells was carried out using a custom WAVE-FX-X1 spinning disc confocal system (Quorum Technologies) with a modified Yokogawa CSU-X1 scanhead on an AxioObserver Z1 inverted microscope (Carl Zeiss) with a x40 NA 1.2 Plan Apochromat (Carl Zeiss) objective. Cells were plated in a 35 mm glass-bottom dish (Mat-Tek, P35G-1.5-14-C) and were maintained in a stage-top incubator at 37° C. and 5% CO2 during imaging. Cells were cultured in phenol-red free RPMI medium (Thermo Fisher Scientific, 11835030) with 5% FBS and 200 nM SiR-DNA (Spirochrom, S0007) was added 1 h prior to imaging to visualize the nuclei. Localization of Clover-YAP was monitored every 10 min for 2 h. Volocity software was used for image acquisition and processing.

Another experiment deals with MDA-MB-231 cells. The experiment in a line: Tumor cell growth inhibition assay (ATPlite). The experiment is classed as cell-based. Particulars: Homo sapiens, 120 h, MDA-MB-231 breast tumor cell line, 5 days. Here is the method: MDA-MB-231 cells were seeded into a 384-well plate at 1,000 cells/well in 50 μl medium (Alpha-MEM containing 10% FBS, […] Normocin, Invivogen and […] Gentamycin, Invitrogen). Plates were then incubated overnight for the cells to attach. An HP D300 digital dispenser was used to dose cells with DMSO or test compounds across a 16-point range of concentrations (high dose of 10 uM to low dose of 5 nM). Plates were incubated in a humidified 5% CO2 incubator at 37° C. After 5 days, plates were removed from the incubator and equilibrated to room temperature. An equal volume of ATPlite assay reagent was then added to each well, and samples processed according to manufacturer's instructions (Perkin Elmer). Luminescent signals were then measured using an Envision plate reader equipped with a US-Luminescence detector.
For orientation: Cellular ATP, detected with luciferase, serves as a proxy for viable cell number.

The next experiment deals with T2, Aurora A (Homo sapiens, UniProt O14965).
T2 sequence (O14965 1-403): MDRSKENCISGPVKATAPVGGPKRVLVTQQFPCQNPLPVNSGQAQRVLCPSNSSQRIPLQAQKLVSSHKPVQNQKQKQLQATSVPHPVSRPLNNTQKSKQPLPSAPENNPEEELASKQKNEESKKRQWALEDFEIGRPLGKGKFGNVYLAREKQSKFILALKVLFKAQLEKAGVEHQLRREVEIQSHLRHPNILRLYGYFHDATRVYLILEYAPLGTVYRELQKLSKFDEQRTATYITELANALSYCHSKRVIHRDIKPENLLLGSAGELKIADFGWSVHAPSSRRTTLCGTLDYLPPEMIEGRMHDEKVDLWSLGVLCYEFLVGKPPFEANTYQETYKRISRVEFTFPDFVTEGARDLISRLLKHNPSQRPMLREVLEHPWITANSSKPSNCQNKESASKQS
The experiment in a line: Aurora A counter screen. In kind it is biochemical. Conditions: read-out: AUR-A (IC50). A digest of the protocol: as §1
For orientation: The purpose of a counterscreen is to sort out artefacts and off-target activity.

The target of the next experiment is T3, NUAK1 (Homo sapiens, UniProt O60285).
T3 sequence (O60285 1-661): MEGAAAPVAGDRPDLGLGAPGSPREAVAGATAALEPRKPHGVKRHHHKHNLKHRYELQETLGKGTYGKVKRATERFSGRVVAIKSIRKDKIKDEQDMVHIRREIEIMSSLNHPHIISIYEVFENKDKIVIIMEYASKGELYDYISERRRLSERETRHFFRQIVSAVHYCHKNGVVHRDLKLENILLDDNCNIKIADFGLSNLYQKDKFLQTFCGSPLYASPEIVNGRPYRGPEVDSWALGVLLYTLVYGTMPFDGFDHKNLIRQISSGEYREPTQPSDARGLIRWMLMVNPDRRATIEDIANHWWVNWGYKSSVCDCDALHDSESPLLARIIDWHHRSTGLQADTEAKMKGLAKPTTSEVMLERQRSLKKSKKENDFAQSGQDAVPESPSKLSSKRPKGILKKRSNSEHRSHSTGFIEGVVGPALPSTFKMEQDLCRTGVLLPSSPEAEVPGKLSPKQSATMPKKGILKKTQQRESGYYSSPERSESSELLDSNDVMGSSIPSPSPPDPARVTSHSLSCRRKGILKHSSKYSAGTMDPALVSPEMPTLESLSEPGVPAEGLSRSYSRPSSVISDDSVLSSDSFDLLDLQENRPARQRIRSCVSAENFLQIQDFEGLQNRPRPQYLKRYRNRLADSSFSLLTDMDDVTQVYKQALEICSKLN
The experiment in a line: NUAK1 counter screen. The experiment is classed as biochemical. The procedure, abridged: as §1

For experiment [3], the system named is YAP/TAZ nuclear localization in several cancer cell lines. Conditions: IF confocal microscopy; cited from earlier work.
Experiment [4] has as its system YAP/TAZ transcriptional function in several cancer cell lines. Particulars: PCR; cited from earlier work.

Some results are limits rather than exact numbers.

Usually IC50 stands for the concentration that inhibits the measured activity by half. As to `CN1CCN(c2ccc(Nc3ncc(Cl)c(Nc4ccsc4C(N)=O)n3)c(OC(F)F)c2)CC1` [Compound I-1, 3-((5-chloro-2-((2-(difluoromethoxy)-4-(4-methylpiperazin-1-yl)phenyl)amino)pyrimidin-4-yl)amino)thiophene-2-carboxamide], the “formation of cellular p-MYPT1 (pSer445)” value in experiment [1] is given as “inhibits the formation of cellular p-MYPT1”. The “AUR-A (IC50, nM)/NUAK2 (IC50, nM)” value at NUAK2 (h) is 40. The IC50 at NUAK2 (h) was 0.1 to 10 nM; in the experiment on MDA-MB-231 cells it was 195 nM; on Aurora A, 101 to 1000 nM; against NUAK1, 11 to 100 nM. For the same compound, the “inhibition of YAP/TAZ nuclear localization” value in experiment [2] is on record as “significant improvement in inhibition of YAP/TAZ nuclear localization”.

Take `CC(C)N1CCN(C2CCN(c3ccc(Nc4ncc(C(F)(F)F)c(Nc5ccsc5C(N)=O)n4)c(OC(F)F)c3)CC2)CC1` [Compound I-78, 3-((2-((2-(difluoromethoxy)-4-(4-(4-isopropylpiperazin-1-yl)piperidin-1-yl)phenyl)amino)-5-(trifluoromethyl)pyrimidin-4-yl)amino)thiophene-2-carboxamide]: the IC50 was 11 to 100 nM on NUAK2 (h), 96 nM in the experiment with MDA-MB-231 cells, 101 to 1000 nM at Aurora A and 11 to 100 nM on NUAK1.

Take `CN1CCN(c2ccc(Nc3ncc(Cl)c(N[C@@H]4CCCC[C@H]4C(N)=O)n3)c(OC(F)F)c2)CC1` [Compound I-82, (1R,2R)-2-((5-chloro-2-((2-(difluoromethoxy)-4-(4-methylpiperazin-1-yl)phenyl)amino)pyrimidin-4-yl)amino)cyclohexane-1-carboxamide]: the “AUR-A (IC50, nM)/NUAK2 (IC50, nM)” value at NUAK2 (h) was 176. Besides, the IC50 at NUAK2 (h) is 0.1 to 10 nM; with MDA-MB-231 cells it was 858 nM; at Aurora A it was 101 to 1000 nM; against NUAK1, 11 to 100 nM.

Take `CN1CCN(C2CCN(c3ccc(Nc4ncc(Cl)c(N[C@@H]5CCCC[C@H]5C(N)=O)n4)c(OC(F)F)c3)CC2)CC1` [Compound I-87, (1R,2R)-2-((5-chloro-2-((2-(difluoromethoxy)-4-(4-(4-methylpiperazin-1-yl)piperidin-1-yl)phenyl)amino)pyrimidin-4-yl)amino)cyclohexane-1-carboxamide]: the IC50 was 11 to 100 nM at NUAK2 (h), 932 nM in the experiment with MDA-MB-231 cells, over 1000 nM at Aurora A and 11 to 100 nM against NUAK1.

In the case of `CN1CCN(c2ccc(Nc3ncc4cc(C#N)c(=O)n(C5CCCC5)c4n3)cc2)CC1` [ON123300], the YAP/TAZ nuclear localization result in experiment [3] is “a block of YAP/TAZ nuclear localization”. Besides, the “YAP/TAZ transcriptional function (target gene expression)” value in experiment [4] was “attenuates transcriptional function”.

As for `CCC(=O)Nc1cccc(Oc2nc(Nc3ccc(N4CCN(C)CC4)cc3OC)ncc2Cl)c1` [WZ4003], in experiment [3], the YAP/TAZ nuclear localization entry is on record as “a block of YAP/TAZ nuclear localization”. For the same compound, the “YAP/TAZ transcriptional function (target gene expression)” value in experiment [4] is “attenuates transcriptional function”.
